Measured values from article PMC11474028, “Lipopeptide antibiotics disrupt interactions of undecaprenyl phosphate with UptA” (Proceedings of the National Academy of Sciences of the …, 2024).
Entries after “also recorded” stand apart in the source; their conditions may differ.

Experiments:
UptA R112A/R118A = test: Native MS of C55-P binding to UptA double mutant R112A/R118A; parameters: species or system Bacillus subtilis; details: 5 µM protein, 10 µM C55-P, pH 8.02, 0.05% LDAO, 200 mM ammonium acetate, 100 V; mean of three biological replicates
UptA = UptA (Bacillus subtilis, UniProt O31823); test: Native MS competition of C55-P and phospholipids for UptA binding; details: 4 µM UptA and 10 µM DOPG or DOPE, increasing C55-P up to 20 µM, on ice 15 min
Description: To investigate whether or not C55-P can outcompete phospholipids in binding to UptA, we incubated solutions containing UptA-DOPG with increasing concentrations of C55-P. Spectra were recorded after aliquots of the solution were equilibrated on ice for 15 min. […] We therefore hypothesised that phospholipids should be unable to outcompete C55-P bound to UptA. To test this hypothesis, we incubated UptA with C55-P and then equilibrated aliquots with an increasing concentration of DOPG. […]
The chloroform layer containing the total lipids was recovered into a clean glass vial, and the organic solvent was evaporated in a SpeedVac for 16 h. Lipid film was resuspended 200 mM ammonium acetate, 0.05% LDAO (pH 8.0) to ~0.5 mg/mL for the binding experiments.
Sample preparation for native MS
Before measurements, the protein was buffer-exchanged into 0.05% LDAO, 200 mM ammonium acetate (“MS buffer”) at the desired pH using a centrifugal buffer exchange device (Micro Bio -Spin 6, Bio-Rad). Stock solutions of lipids were prepared from chloroform/methanol solution by evaporating aliquots of known volume in a SpeedVac. After drying, the lipid films were weighed and resuspended to a final concentration of 0.5 mM in 200 mM ammonium acetate (pH8) and 0.05% LDAO by vertexing. Stock solutions of 0.5 mM amphomycin, aspartocin D, daptomycin and bacitracin, were made in the same buffer. All experiments were repeated three times from newly prepared stock solutions.
About 3 μL protein aliquot was transferred into a gold-coated borosilicate capillary (Harvard Apparatus) and was mounted on the nano ESI source of a Q-Exactive hybrid quadrupole-Orbitrap mass spectrometer (Thermo Fisher Scientific, Bremen, Germany). The instrument settings were 1.2 kV capillary voltage, S-lens RF 200%, argon UHV pressure 3.3 × 10−10 mbar, the capillary temperature was set to 200 °C, and resolution of the instrument was set to 17,500 at a transie nt time of 64 ms. […] The resulting fragments were detected in the Orbitrap (R = 280,000 @ m/z 200), averaging ~500 transients to maximise the signal-to-noise ratio. […]

UptA, sequence (O31823 whole entry): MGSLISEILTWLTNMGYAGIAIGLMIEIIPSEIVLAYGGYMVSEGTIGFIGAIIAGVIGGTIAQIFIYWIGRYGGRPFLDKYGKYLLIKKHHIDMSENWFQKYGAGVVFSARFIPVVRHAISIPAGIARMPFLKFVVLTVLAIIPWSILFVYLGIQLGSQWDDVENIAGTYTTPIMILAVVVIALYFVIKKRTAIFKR

`CC(C)=CCC/C(C)=C/CC/C(C)=C/CC/C(C)=C\CC/C(C)=C\CC/C(C)=C\CC/C(C)=C\CC/C(C)=C\CC/C(C)=C\CC/C(C)=C\CC/C(C)=C\COP(=O)(O)O` [C55-P, undecaprenyl phosphate] was tested, and the “reduction in C55-P binding, R112A/R118A” value (UptA R112A/R118A) was 43% and the “displacement of phospholipid from UptA by C55-P (in words)” value (UptA) was “C55-P has displaced most of DOPG from UptA; also recorded: C55-P effectively outcompete DOPE for UptA binding”.
